Assays:
[1] = test system: conscious renal hypertensive dogs; assay: Lercanidipine and enalapril in renal hypertensive dogs (two-kidney, two clip); assay type: in vivo, beagle dogs
Protocol: Male beagle dogs, 10-12 months old and weighing between 10-11 kg, were used. All dogs were trained for several weeks, to comply unstressfully to the test environment. Chronic sustained hypertension was induced in 4 dogs by bilateral renal artery constriction, according to the Goldblatt method “two-kidney, two clip hypertension”. Briefly, under sodium pentobarbital anaesthesia (35 mg/kg i.v.) during two different surgical interventions 15 days apart from each other, in sterile conditions, both renal arteries were clipped with original renal silver clips and narrowed by about 60-70%. After two months from the last intervention, an experimental renal hypertension was produced and the animals were used for the implantation of catheter.
Under sodium pentobarbital anaesthesia (35 mg/kg i.v.), in sterile conditions, the dogs were catheterized by inserting a sensor tipped catheter (Mikro-Tip) into the ascending aorta through the right femoral artery. The catheter was subcutaneously exteriorized at the back of the neck.
After a week recovery time from surgery, the animals were placed in a dog restrained unit, composed by a frame and a dog sling hammock, and connected to the pressure transducers in order to monitor the arterial blood pressure.
All the animals were alternatively treated with vehicle, lercanidipine, enalapril and the combination of lercanidipine and enalapril. The drugs were administered by oral gavage in a volume of 1 ml/kg at the following dosages:
(2) lercanidipine (0.5 mg/kg)
(4) lercanidipine […] enalapril (0.5 mg/kg +3 mg/kg)
Blood pressure (systolic and diastolic) was monitored up to 6 h after the administration. Statistical analysis was performed from time 0 to time 360 min. To evaluate the statistical differences among the treatments, data were analyzed using a three-way ANOVA with repeated measures on factor time and pre-planned multiple comparisons. Statistical analysis was performed by means of GLM (general linear model procedure) with SAS software version 6.12.

[2] = test system: isolated rat aorta; details: in vitro; even after the drug has been removed for 6 hours; cited from earlier work
[3] = enalapril 3 mg/kg oral, 120 min
[4] = enalapril 3 mg/kg oral, 150 min
[5] = enalapril 3 mg/kg oral, 180 min
[6] = enalapril 3 mg/kg oral, 240 min
[7] = enalapril 3 mg/kg oral, 360 min
[8] = lercanidipine 0.5 mg/kg oral, 15 min
[9] = lercanidipine 0.5 mg/kg oral, 30 min
[10] = lercanidipine 0.5 mg/kg oral, 45 min
[11] = lercanidipine 0.5 mg/kg oral, 60 min
[12] = lercanidipine 0.5 mg/kg oral, 90 min
[13] = lercanidipine 0.5 mg/kg oral, 120 min
[14] = lercanidipine 0.5 mg/kg oral, 150 min
[15] = lercanidipine 0.5 mg/kg oral, 180 min
[16] = lercanidipine 0.5 mg/kg oral, 240 min
[17] = lercanidipine 0.5 mg/kg oral, 360 min
[18] = lercanidipine 0.5 mg/kg oral, Basal

Compound: CCOC(=O)[C@H](CCc1ccccc1)N[C@@H](C)C(=O)N1CCC[C@H]1C(=O)O [enalapril, (S)-1-[N-1-(ethoxycarbonyl)-3-phenylpropyl]-L-alanyl-L-proline]
- DBP (diastolic blood pressure) ([1]; enalapril 3 mg/kg oral, 15 min): 114.5 ± 4.9 mmHg
- SBP (systolic blood pressure) ([1]; enalapril 3 mg/kg oral, 15 min): 162.8 ± 4.8 mmHg
- DBP (diastolic blood pressure) ([1]; enalapril 3 mg/kg oral, 30 min): 114.0 ± 4.7 mmHg
- SBP (systolic blood pressure) ([1]; enalapril 3 mg/kg oral, 30 min): 160.3 ± 4.1 mmHg
- DBP (diastolic blood pressure) ([1]; enalapril 3 mg/kg oral, 45 min): 110.3 ± 4.7 mmHg
- SBP (systolic blood pressure) ([1]; enalapril 3 mg/kg oral, 45 min): 158.0 ± 5.6 mmHg
- DBP (diastolic blood pressure) ([1]; enalapril 3 mg/kg oral, 60 min): 105.3 ± 5.6 a mmHg
- SBP (systolic blood pressure) ([1]; enalapril 3 mg/kg oral, 60 min): 158.0 ± 6.4 mmHg
- DBP (diastolic blood pressure) ([1]; enalapril 3 mg/kg oral, 90 min): 107.5 ± 3.2 mmHg
- SBP (systolic blood pressure) ([1]; enalapril 3 mg/kg oral, 90 min): 159.0 ± 5.8 mmHg
- DBP (diastolic blood pressure) [1, 3]: 105.0 ± 5.3 b mmHg
- SBP (systolic blood pressure) [1, 3]: 153.5 ± 7.5 mmHg
- DBP (diastolic blood pressure) [1, 4]: 108.3 ± 4.5 a mmHg
- SBP (systolic blood pressure) [1, 4]: 158.5 ± 5.7 mmHg
- DBP (diastolic blood pressure) [1, 5]: 110.5 ± 3.6 mmHg
- SBP (systolic blood pressure) [1, 5]: 158.8 ± 5.5 mmHg
- DBP (diastolic blood pressure) [1, 6]: 116.0 ± 3.3 mmHg
- SBP (systolic blood pressure) [1, 6]: 161.3 ± 7.2 mmHg
- DBP (diastolic blood pressure) [1, 7]: 111.8 ± 4.3 mmHg
- SBP (systolic blood pressure) [1, 7]: 158.8 ± 5.9 mmHg
- DBP (diastolic blood pressure) ([1]; enalapril 3 mg/kg oral, Basal): 120.0 ± 4.2 mmHg
- SBP (systolic blood pressure) ([1]; enalapril 3 mg/kg oral, Basal): 164.8 ± 3.5 mmHg

Compound: COC(=O)C1=C(C)NC(C)=C(C(=O)OC(C)(C)CN(C)CCC(c2ccccc2)c2ccccc2)C1c1cccc([N+](=O)[O-])c1 (stereo not drawn) [lercanidipine, methyl 1,1,N-trimethyl-N-(3,3-diphenylpropyl)-2-aminoethyl 1,4-dihydro-2,6-dimethyl-4-(3-nitrophenyl)pyridine-3,5-dicarboxylate]
- DBP (diastolic blood pressure) [1, 8]: 107.0 ± 5.8 mmHg
- SBP (systolic blood pressure) [1, 8]: 152.5 ± 6.6 mmHg
- DBP (diastolic blood pressure) [1, 9]: 95.3 ± 3.6 c mmHg
- SBP (systolic blood pressure) [1, 9]: 142.5 ± 4.8 b mmHg
- DBP (diastolic blood pressure) [1, 10]: 89.0 ± 4.8 c mmHg
- SBP (systolic blood pressure) [1, 10]: 138.3 ± 5.1 c mmHg
- DBP (diastolic blood pressure) [1, 11]: 87.5 ± 6.3 c mmHg
- SBP (systolic blood pressure) [1, 11]: 142.3 ± 7.4 a mmHg
- DBP (diastolic blood pressure) [1, 12]: 87.3 ± 5.3 c mmHg
- SBP (systolic blood pressure) [1, 12]: 138.3 ± 5.7 c mmHg
- DBP (diastolic blood pressure) [1, 13]: 93.0 ± 5.6 c mmHg
- SBP (systolic blood pressure) [1, 13]: 140.5 ± 5.9 b mmHg
- DBP (diastolic blood pressure) [1, 14]: 94.0 ± 7.2 c mmHg
- SBP (systolic blood pressure) [1, 14]: 139.3 ± 10.1 c mmHg
- DBP (diastolic blood pressure) [1, 15]: 96.8 ± 5.1 c mmHg
- SBP (systolic blood pressure) [1, 15]: 141.0 ± 7.2 b mmHg
- DBP (diastolic blood pressure) [1, 16]: 104.0 ± 5.0 a mmHg
- SBP (systolic blood pressure) [1, 16]: 144.8 ± 6.8 a mmHg
- DBP (diastolic blood pressure) [1, 17]: 108.0 ± 3.5 mmHg
- SBP (systolic blood pressure) [1, 17]: 150.0 ± 6.8 mmHg
- DBP (diastolic blood pressure) [1, 18]: 117.5 ± 5.2 mmHg
- SBP (systolic blood pressure) [1, 18]: 161.3 ± 3.8 mmHg
- isolated rat aorta response to high K+ [2]: attenuated

From US20030180355A1, “Combination therapy for hypertension” (priority 2001, published 2003)
